# From US10066238B2, “Methods for producing antibodies” (priority 2013, dated 2018)
# Read-outs that look alike come from different tables or passages of the source.
# Legend:
# [1] = test system: SS1196.1 pseudovirus (clade B); assay: HIV-1 neutralization assay (Env-pseudotyped virus, Luc reporter); type: cell-based
# [2] = test system: SF162 pseudovirus (clade B); assay: as above; type: cell-based
# [3] = test system: Q769.h5 pseudovirus (clade A); assay: as above; type: cell-based
# [4] = test system: Du156 pseudovirus (clade C); assay: as above; type: cell-based
# FcγRI = FcγRI (Homo sapiens, UniProt P12314); assay: FcγRI binding in ELISA and in flow cytometry; conditions: data not shown
# [5] = molecular target: recombinant hemagglutinin (HA) (A/New Caledonia/20/99); assay: SPR analysis of captured CR6261; type: binding, influenza H1N1; conditions: HA as analyte, bivalent analyte kinetics fit, read-out: equilibrium dissociation constant, KD
# HIV-1 BaL = conditions: topical gel formulation; CCR5-using HIV-1 BaL; Veselinovic, et al.; cited from earlier work
# [6] = test system: Q769.h5 pseudovirus (clade A); conditions: reported by Wu et al. (16); cited from earlier work
# [7] = test system: Du156 pseudovirus (clade C); conditions: reported by Wu et al. (16); cited from earlier work
# [8] = test system: SF162 pseudovirus (clade B); conditions: reported by Wu et al. (16); cited from earlier work
# [9] = TZM-b1 cells, GRFT, MVC concentration in combination, mean ± SEM, read-out: IC50 in a respective combination with VRC01p
# [10] = TZM-b1 cells, GRFT, MVC, mean ± SEM, read-out: IC50 when used individually
# [11] = read-out: IC50 in a respective combination with VRC01p, TZM-b1 cells, GRFT, MVC concentration in combination, mean ± SEM
# [12] = read-out: IC50 when used individually, TZM-b1 cells, GRFT, MVC, mean ± SEM
# [13] = TZM-b1 cells, TFV concentration in combination, mean ± SEM, read-out: IC50 in a respective combination with VRC01p
# [14] = TZM-b1 cells, TFV, mean ± SEM, read-out: IC50 when used individually
# Chain of FcγRI (P12314 16-374, species assumed): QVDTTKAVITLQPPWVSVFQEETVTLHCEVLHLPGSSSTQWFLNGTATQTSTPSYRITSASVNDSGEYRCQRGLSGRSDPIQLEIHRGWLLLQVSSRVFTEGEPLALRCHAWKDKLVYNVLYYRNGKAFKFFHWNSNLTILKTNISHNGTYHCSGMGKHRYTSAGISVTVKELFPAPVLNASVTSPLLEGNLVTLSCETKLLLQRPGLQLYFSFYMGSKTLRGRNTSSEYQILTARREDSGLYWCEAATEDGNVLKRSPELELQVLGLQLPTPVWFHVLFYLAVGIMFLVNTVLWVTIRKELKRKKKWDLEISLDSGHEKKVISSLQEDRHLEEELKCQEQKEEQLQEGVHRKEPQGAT
compound,measurement,setting,value
griffithsin [GRFT],IC50,[1]; [9],0.01 ± 0.001 nM
same,IC50,[1]; [10],0.04 ± 0.01 nM
same,dose reduction index (DRI) in a respective combination with VRC01p,[1]; mean ± SEM,2.98 ± 0.72
same,IC50,[2]; [9],0.1 ± 0.03 nM
same,IC50,[2]; [10],0.59 ± 0.34 nM
same,dose reduction index (DRI) in a respective combination with VRC01p,[2]; mean ± SEM,3.19 ± 1.16
same,IC50,[3]; [9],0.79 ± 0.19 nM
same,IC50,[3]; [10],12.4 ± 2.88 nM
same,dose reduction index (DRI) in a respective combination with VRC01p,[3]; mean ± SEM,11.3 ± 2.95
same,IC50,[4]; [9],0.003 ± 0.0004 nM
same,IC50,[4]; [10],0.02 ± 0.001 nM
same,dose reduction index (DRI) in a respective combination with VRC01p,[4]; mean ± SEM,6.29 ± 0.66
VRC01p: Nicotiana plant-expressed anti-HIV-1 bnMAb VRC01 IgG1 from the L-(KP6pp)-H construct,binding to FcγRI compared with a human IgG1 isotype control,FcγRI,nearly an order of magnitude less
CR6261: anti-influenza bnMAb CR6261 IgG1 (PDB ID: 3GBM) expressed in N. benthamiana,Kd,[5],0.055 ± 0.0036 nM
maraviroc [MVC],dose reduction index (DRI) in a respective combination with VRC01p,[1]; mean ± SEM,5.06 ± 0.39
same,IC50,[1]; [11],15.6 ± 8.87 nM
same,IC50,[1]; [12],96.4 ± 28.5 nM
same,dose reduction index (DRI) in a respective combination with VRC01p,[2]; mean ± SEM,4.21 ± 0.25
same,IC50,[2]; [11],18.3 ± 7.9 nM
same,IC50,[2]; [12],54.9 ± 29.3 nM
same,dose reduction index (DRI) in a respective combination with VRC01p,[3]; mean ± SEM,4.40 ± 0.71
same,IC50,[3]; [11],5.27 ± 1.12 nM
same,IC50,[3]; [12],29.6 ± 7.75 nM
same,dose reduction index (DRI) in a respective combination with VRC01p,[4]; mean ± SEM,5.93 ± 0.96
same,IC50,[4]; [11],32.2 ± 11.5 nM
same,IC50,[4]; [12],199 ± 40.4 nM
VRC01: CD4-binding site (CD4bs)-specific bnMAb isolated from a slowly progressing HIV-1 infected donor,protection against vaginal challenge,HIV-1 BaL,protected
VRC01HEK: HEK293F cell-produced bnMAb VRC01,VRC01HEK IC50,[6],0.084 mg/L
same,VRC01HEK IC50,[7],0.089 mg/L
same,VRC01HEK IC50,[8],0.139 mg/L
"C[C@H](Cn1cnc2c(N)ncnc21)OCP(=O)(O)O [TFV, tenofovir]",IC50,[1]; [13],1920 ± 340 nM
same,IC50,[1]; [14],7650 ± 2390 nM
same,dose reduction index (DRI) in a respective combination with VRC01p,[1]; mean ± SEM,3.76 ± 0.68
same,IC50,[2]; [13],880 ± 400 nM
same,IC50,[2]; [14],2700 ± 1020 nM
same,dose reduction index (DRI) in a respective combination with VRC01p,[2]; mean ± SEM,2.10 ± 0.34
same,IC50,[3]; [13],2090 ± 390 nM
same,IC50,[3]; [14],21200 ± 3530 nM
same,dose reduction index (DRI) in a respective combination with VRC01p,[3]; mean ± SEM,8.40 ± 1.41
same,IC50,[4]; [13],60 nM
same,IC50,[4]; [14],7140 ± 1910 nM
same,dose reduction index (DRI) in a respective combination with VRC01p,[4]; mean ± SEM,3.01 ± 0.65
